Experimental data reported in patent US10968196B2, “Substituted β-lapachones for treating cancer” (University of Pittsburgh—Of the Commonwealth System of …, priority 2015, dated 2021).
“And” between values parts separate entries of the source, which are not always exact repeats. Equal entries are not always repeated.

Columns and labels:
983B melanoma cells = experiment: CellTiter-Blue cell viability assay, 24 h treatment; assay type: cell-based; conditions: 983B cells, indicated concentrations, 24 h (FIG. 3B)
Experimental: (§1) (3A) A549 non-small cell lung cancer cells were treated with XJB-OMe, 3-hydroxy-β-lapachone (14), or XJB-lapachone (18) at indicated concentrations for 24 h. Cell viability was determined by a CellTiter-Blue assay. Data represents the mean±SEM. (3B) PEO1 ovarian cancer cells, MDA-MB-231 breast cancer cells, and 983B melanoma cells were treated with XJB-lapachone (18) at indicated concentrations for 24 h. Cell viability was determined by a CellTiter-Blue assay. Data represents the mean±SEM. (3C) Equal numbers of A549 and IMR90 lung fibroblast cells were treated with 10 μM XJB-lapachone (18) for 4 h. XJB-lapachone was then washed away and cells were incubated in drug free media for 3 days. Cell viability was determined by a CellTiter-Blue assay. (3D) A549 cells were treated with XJB-OMe, 3-hydroxy-β-lapachone (14), or XJB-lapachone (18) at 6 μM concentrations for 20 h. The formation of vacuoles was examined by phase contrast microscopy. Representative images are shown. (3E) A549 cells were treated as described above. Apoptotic and necrotic cell death were determined by Annexin V and PI staining. Representative images are shown.
(§2) Cell culture: A549 non-small cell lung cancer cells and MDA-MB-231 breast carcinoma cells were obtained from American Type Culture Collection (ATCC). Ovarian cancer cells PEO1 were kindly provided by Dr. Karyn J. Hansen (Magee-Womens Hospital of UPMC). 983B melanoma cells were kindly provided by Dr. Stergios J. Moschos (University of North Carolina). IMR90 normal lung fibroblast cells were kindly provided by Dr. Christopher Bakkenist (University of Pittsburgh Cancer Institute). Cells were cultured in either RPMI 1640 or DMEM media supplemented with 10% heat-inactivated fetal calf serum and 1% penicillin-streptomycin in 5% CO2 at 37° C.
(§3) Cell viability and apoptosis assays: Cell viability was determined using a CellTiter-Blue Cell Viability Assay (Promega, Madison, Wis.). The survival fractions were calculated after setting untreated control cells at 100%. An FITC Annexin V Apoptosis Detection Kit (BD PharMingen, San Diego, Calif.) was used to quantify apoptotic cells and necrotic cells, according to the manufacturer's instructions.
(§4) In order to investigate the cellular toxicity of 18 (XJB-lapachone), A549 nonsmall cell lung cancer cells were treated with various concentrations of XJB-lapachone for 24 h, and compared its effect with XJB-OMe (the mitochondrial targeting moiety) and unconjugated 3-hydroxy-β-lapachone (14). […] Furthermore, XJB-lapachone is also effective against other types of tumor cells, including PEO1 ovarian cancer cells, MDA-MB-231 breast cancer cells, and 983B melanoma cells (FIG. 3B). […] Tumor selectivity of β-lapachone, and whether the same is maintained after XJB conjugation, was examined. The cytotoxic effect of XJB-lapachone on A549 lung cancer and non-transformed human lung fibroblast cells IMR90 was determined by a cell growth/death assay.

[1] = test system: A549 non-small cell lung cancer cells; experiment: as above; assay type: cell-based; conditions: various concentrations, CellTiter-Blue (FIG. 3A)
Experimental: as §1, §2, §3, §4

[2] = test system: MDA-MB-231 breast cancer cells; experiment: as above; assay type: cell-based; conditions: MDA-MB-231 cells (NQO1 deficient), indicated concentrations, 24 h (FIG. 3B)
Experimental: as §1, §2, §3, §4

[3] = test system: PEO1 ovarian cancer cells; experiment: as above; assay type: cell-based; conditions: indicated concentrations, 24 h (FIG. 3B)
Experimental: as §1, §2, §3, §4

A549 lung cancer cells = experiment: Cell growth/death assay (4 h exposure, wash-out, 3 days drug free); assay type: cell-based; conditions: A549, 10 μM for 4 h, washed, 3 days drug free media (FIG. 3C)
Experimental: as §1, with “The formation of vacuoles was examined by phase contrast microscopy. Representative images are shown. (3E) A549 cells were treated as described above.” left out, “Representative images are shown.” left out
as §3, with “instructions. […]” for “instructions.”

[4] = test system: IMR90 lung fibroblast cells; experiment: as above; assay type: cell-based, human; conditions: IMR90, 10 μM for 4 h, washed, 3 days drug free media (FIG. 3C)
Experimental: as §1, with “The formation of vacuoles was examined by phase contrast microscopy. Representative images are shown. (3E) A549 cells were treated as described above.” left out, “Representative images are shown.” left out
as §3, with “instructions. […]” for “instructions.”

A549 cells [5] = experiment: Vacuole formation by phase contrast microscopy; assay type: cell-based; conditions: A549, 6 μM, 20 h, phase contrast microscopy (FIG. 3D)
Experimental: as §1
Microscopy: For vacuole imaging, A549 cells were plated in 12-well plate, treated with compounds and the phase contrast images were captured using a Nikon Eclipse TS100 inverted microscope. […]

A549 cells [6] = experiment: Annexin V and PI staining (apoptotic and necrotic cell death); assay type: cell-based; conditions: A549, 6 μM, 20 h, compared to unconjugated 3-hydroxy-β-lapachone (FIG. 3E)
Experimental: as §1, with “The formation of vacuoles was examined by phase contrast microscopy. Representative images are shown. (3E) A549 cells were treated as described above.” left out, “Representative images are shown.” left out
as §3

A549 cells [7] = experiment: ROS generation by DCF-DA and MitoSox, flow cytometry; assay type: cell-based; conditions: for ROS generation (DCF) / mitochondrial ROS generation (MitoSox): A549, 6 μM, 16 h, flow cytometry (FIG. 4A)
Experimental: (§5) (4A) A549 cells were treated with XJB-OMe, 3-hydroxy-β-lapachone (14), or XJB-lapachone (18) at 6 μM for 16 h. The generation of ROS was determined by staining cells with MitoSox and DCFHDA. The fluorescence intensity was measured by flow cytometry. Data represents the mean±S.D. of triplicates. (4B) A549 cells were treated as described in A, and the oxygen consumption rate was determined by a Seahorse extracellular flux analyzer. […] (4C) A549 cells were treated as described in A, and mitochondria morphology was examined by electron microscopy. Representative images are shown. (4D) A549 cells were treated as described above. The expression of the autophagy marker LC3 was examined by western blot. β-actin was used as a loading control. Representative images are shown.
(§6) Determination of ROS generation: To measure intracellular generation of ROS, cells were incubated with 5 μM DCF-DA (Sigma) for 20 min at 37° C. after drug exposure. To measure mitochondrial generated ROS, cells were incubated with 5 μM of MitoSox (Invitrogen) for 20 min at 37° C. After wash with PBS, cells were trypsinized and suspended in HBSS containing 1% BSA. The fluorescence intensity of DCF and MitoSox were analyzed using an Accuri C6 flow cytometer (BD Accuri Cytometers, Ann Arbor, Mich.).
(§7) A549 non-small cell lung cancer cells (high NQO1) and MDA-MB-231 triple negative breast cancer cells (NQO1 deficient) were treated as indicated in FIG. 6. Mitochondrial ROS generation was determined by MitoSox followed by flow cytometry, essentially as described above.

A549 cells [8] = experiment: Oxygen consumption rate, Seahorse extracellular flux analysis; assay type: cell-based; conditions: A549, 6 μM, 16 h, Seahorse (FIG. 4B)
Experimental: as §5
Extracellular flux (XF) analysis: Oxygen consumption rate (OCR) was measured using a Seahorse XF96 Extracellular Flux Analyzer (Seahorse Bioscience, North Billerica, Mass.), as previously described (Qian W, et al., Alterations in bioenergetics due to changes in mitochondrial DNA copy number. Methods 2010 51:452-457). Briefly, A549 cells were plated in a 6-well plate and treated with compounds for 16 h. After treatment, cells were trypsinized, counted, and plated at 40,000 cells per well in a XF96 microplate using Cell-Tak cell adhesive. OCR measurements were then performed using a XF96 analyzer.

A549 cells [9] = experiment: Mitochondria morphology by transmission electron microscopy; assay type: cell-based; conditions: A549, 6 μM, 16 h, electron microscopy (FIG. 4C)
Experimental: as §5
Microscopy: For vacuole imaging, A549 cells were plated in 12-well plate, treated with compounds and the phase contrast images were captured using a Nikon Eclipse TS100 inverted microscope. For transmission electron microscopy analysis, A549 cells cultured in 6-well plate were fixed with 2.5% glutaraldehyde (Sigma-Aldrich) in PBS for 1 h at room temperature, and post-fixed for 1 h at 4° C. in 1% OsO4 with 1% K3Fe(CN)6. After dehydration and embedding, ultrathin (70 nm) sections were cut and mounted onto copper grids. […]

LC3 = experiment: Western blot of autophagy marker LC3; assay type: cell-based; conditions: A549, western blot (FIG. 4D)
Experimental: as §5
Western blot analysis: Western blot was performed. Primary antibody LC3 was obtained from Novus (Littleton, Colo.) and β-actin was purchased from Sigma-Aldrich (St. Louis, Mo.).

[10] = test system: A549 non-small cell lung cancer cells; experiment: Colony forming capacity (crystal violet) 10 days after drug treatment; assay type: cell-based
Experimental: Drug efficacy was determined by colony forming capacity using crystal violet 10 days after drug treatment.
A549 non-small cell lung cancer cells were treated with XJB-lapachone alone or combination with cisplatin or etoposide for 4 h at concentrations indicated in FIG. 10. Drug efficacy was determined by colony forming capacity 10 days after drug treatment.
A549 cells were treated with XJB-lapachone for 4 h. XJB-lapachone was then washed away before IR exposure (gamma-irradiation with a Shepherd Mark I Model 68 [^137Cs] irradiator) at 0, 1, 2, 4, and 6 Gy (grays). The number of colonies was counted 10 days after IR exposure (FIG. 11).

[11] = test system: MDA-MB-231 triple negative breast cancer cells (NQO1 deficient); experiment: Mitochondrial ROS generation by MitoSox, flow cytometry; assay type: cell-based
Experimental: as §6, §7
Mitochondrial ROS generation was determined by MitoSox followed by flow cytometry. Left-shift of peak indicates decrease of ROS and right-shift of peak indicates increase of ROS.

MDA-MB-231 rho0 cells = experiment: Celltiter-blue cell viability in rho0 cells; assay type: cell-based; conditions: MDA-MB-231 rho0 cells (mtDNA depleted), increasing concentrations, 24 h (FIG. 8)
Experimental: MDA-MB-231 parental and rho0 cells (established by long-term culture of parental MDA-MB-231 cells in the presence of 50 ng/ml ethidium bromide) were treated with increasing concentrations of XJB-lapachone for 24 h. Cell viability was determined by Celltiter-blue.

DNA damage signaling = experiment: Western blot of DNA damage signaling activation; assay type: cell-based; conditions: A549, western blot after treatment (FIG. 9)
Experimental: Western blot was performed […] after treatment to examine the activation of DNA damage signaling. Antibodies used in the Western Blot were β-actin (AC-15) and ATM (MAT3-4G10/8) (from Sigma); Chk1 (2G1D5), phospho-Chk2 (Thr68) (C13C1), Chk2 (1C12) (from Cell Signaling Technology); phospho-Chk1 (Ser317) (from R&D systems); and phospho-ATM (S1981) (from Epitomics).

CC(C)C[C@@H](/C=C/[C@H](Cc1ccccc1)C(=O)N1CCC[C@H]1C(=O)N[C@H](C(=O)N[C@@H](CCCNC(=O)OCc1ccccc1)C(=O)NCCC(=O)OC1CC2=C(OC1(C)C)c1ccccc1C(=O)C2=O)C(C)C)NC(=O)OC(C)(C)C (stereo partly drawn) [XJB-lapachone, 2,2-Dimethyl-5,6-dioxo-3,4,5,6-tetrahydro-2H-benzo[h]chromen-3-yl 3-((S)-2-((S)-2-((S)-1-((2S,5S,E)-2-benzyl-5-((tert-butoxycarbonyl)amino)-7-methyloct-3-enoyl)pyrrolidine-2-carboxamido)-3-methylbutanamido)-5-(((benzyloxy)carbonyl)amino)pentanamido) propanoate]
cell viability (983B melanoma cells): effective | cell viability / cytotoxic effect ([1]; listed as XJB-Lapachone): superior compared to unconjugated β-lapachone | cell viability / cytotoxic effect ([1]; listed as XJBLapachone): reduced cell viability in a dose dependent manner | cell viability [2]: effective | cell viability [3]: effective | cell viability after four-hour exposure (A549 lung cancer cells): significantly reduced the viability | cell viability after four-hour exposure (toxic effect on non-transformed cells) [4]: toxic effect was less prominent | vacuolization (formation of vacuoles) (A549 cells [5]): extensive vacuolization | annexin V positive cells (apoptosis) (A549 cells [6]): more annexin V positive cells were induced | mitochondrial ROS generation (MitoSox), dose and time dependence (A549 cells [7]; A549 (high NQO1) (FIG. 6)): Induces Mitochondrial ROS Generation in a Dose and Time Dependent Manner | ROS generation (DCF) (A549 cells [7]): dramatic increase of ROS generation | mitochondrial ROS generation (MitoSox) (A549 cells [7]): dramatic increase of ROS generation | ROS generation (DCF) (A549 cells [7]; listed as 18): stronger than unconjugated 3-hydroxy-β-lapachone | mitochondrial ROS generation (MitoSox) (A549 cells [7]; listed as 18): stronger than unconjugated 3-hydroxy-β-lapachone | inhibition of mitochondrial respiration (oxygen consumption) by oligomycin after treatment (A549 cells [8]): can no longer be inhibited by oligomycin | mitochondria morphology (A549 cells [9]): onion skin-like structures of mitochondria were observed | increase in LC3-II immunoblot signal (LC3): increase in an LC3-II immunoblot signal was observed | colony forming capacity in combination with cisplatin or etoposide ([10]; A549, 4 h, alone or combination with cisplatin or etoposide, 10 days (FIG. 10)): enhances the effect of DNA-damaging anticancer agents | treatment efficacy by colony forming capacity ([10]; A549, 4 h treatment, colonies 10 days after (FIG. 5)): Higher Treatment Efficacy as Compared to Unconjugated Beta-Lapachone | number of colonies in combination with ionizing radiation ([10]; A549, 4 h treatment, washed, IR 0-6 Gy, colonies counted 10 days after (FIG. 11)): Synergistic Effect | mitochondrial ROS generation (MitoSox), dose and time dependence ([11]; MDA-MB-231 (NQO1 deficient) (FIG. 6)): Induces Mitochondrial ROS Generation in a Dose and Time Dependent Manner | mitochondrial ROS levels at high concentration ([11]; MDA-MB-231, 2 h, high concentration (FIG. 7)): Increases Mitochondrial ROS | mitochondrial ROS levels at low concentration ([11]; MDA-MB-231, 2 h, low concentration (FIG. 7)): Reduces Mitochondrial ROS Levels | concentration at which ROS decreased ([11]; as described in the examples): ≤ 1 µM | concentration that increases ROS production in the mitochondria ([11]; as described in the examples): > 1.0 µM and > 2.0 µM | induction of cell death in rho0 cells (cell viability) (MDA-MB-231 rho0 cells): effective in inducing cell death in rho0 cells | activation of DNA damage signaling (DNA damage) (DNA damage signaling): induces DNA damage

CC1(C)OC2=C(CC1O)C(=O)C(=O)c1ccccc12 (stereo not drawn) [3-hydroxy-β-lapachone, reference compound]
vacuolization (formation of vacuoles) (A549 cells [5]): not detected | inhibition of mitochondrial respiration (oxygen consumption) by oligomycin after treatment (A549 cells [8]): oligomycin was efficient in inhibiting the mitochondrial respiration | induction of cell death in rho0 cells (cell viability) (MDA-MB-231 rho0 cells): not
